Results: PubChem BioAssay AID342 (DTP/NCI, 2004)

System: Swiss mice, Sarcoma 180 sc, mean tumor weight T/C
Experiment: NCI In Vivo Anticancer Drug Screen. Data for tumor model Sarcoma 180 (subcutaneous) in Swiss mice
Details: endpoint: mean tumor weight, higher = larger tumour
In short: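 T/C ratio: treated over vehicle-treated controls, measuring survival or tumor size in transplanted-tumor mice.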

Structure (SMILES): CC1CCOS(=O)O1 (configuration not stated)
- T/C (dose: 6.25 mg/kg/injection, schedule: Q01DX007 (ip), vehicle: olive oil, sesame oil, peanut oil): 67 % of control
- T/C (dose: 6.25 mg/kg/injection, schedule: Q01DX007 (ip), vehicle: propolene glycol): 62 % of control
- T/C (dose: 6.25 mg/kg/injection, schedule: Q01DX007 (oral), vehicle: olive oil, sesame oil, peanut oil): 81 % of control
- T/C (dose: 6.25 mg/kg/injection, schedule: Q01DX007 (sc), vehicle: olive oil, sesame oil, peanut oil): 81 % of control
- T/C (dose: 12.5 mg/kg/injection, schedule: Q01DX007 (ip), vehicle: olive oil, sesame oil, peanut oil): 85 % of control
- T/C (dose: 12.5 mg/kg/injection, schedule: Q01DX007 (ip), vehicle: propolene glycol): 55 % of control
- T/C (dose: 12.5 mg/kg/injection, schedule: Q01DX007 (oral), vehicle: olive oil, sesame oil, peanut oil): 106 % of control
- T/C (dose: 12.5 mg/kg/injection, schedule: Q01DX007 (oral), vehicle: propolene glycol): 74 % of control
- T/C (dose: 12.5 mg/kg/injection, schedule: Q01DX007 (sc), vehicle: olive oil, sesame oil, peanut oil): 97 % of control
- T/C (dose: 25.0 mg/kg/injection, schedule: Q01DX007 (ip), vehicle: olive oil, sesame oil, peanut oil): 75 % of control
- T/C (dose: 25.0 mg/kg/injection, schedule: Q01DX007 (ip), vehicle: propolene glycol): 62 % of control
- T/C (dose: 25.0 mg/kg/injection, schedule: Q01DX007 (oral), vehicle: olive oil, sesame oil, peanut oil): 79 % of control
- T/C (dose: 25.0 mg/kg/injection, schedule: Q01DX007 (oral), vehicle: propolene glycol): 80 % of control
- T/C (dose: 25.0 mg/kg/injection, schedule: Q01DX007 (sc), vehicle: olive oil, sesame oil, peanut oil): 65 % of control
- T/C (dose: 36.0 mg/kg/injection, schedule: Q01DX007 (ip), vehicle: carboxymethylcellulose (CMC)): 102 % of control
- T/C (dose: 50.0 mg/kg/injection, schedule: Q01DX007 (ip), vehicle: olive oil, sesame oil, peanut oil): 48 % of control
- T/C (dose: 50.0 mg/kg/injection, schedule: Q01DX007 (ip), vehicle: propolene glycol): 56 % of control
- T/C (dose: 50.0 mg/kg/injection, schedule: Q01DX007 (oral), vehicle: olive oil, sesame oil, peanut oil): 71 % of control
- T/C (dose: 50.0 mg/kg/injection, schedule: Q01DX007 (oral), vehicle: propolene glycol): 81 % of control
- T/C (dose: 50.0 mg/kg/injection, schedule: Q01DX007 (sc), vehicle: olive oil, sesame oil, peanut oil): 66 % of control
- T/C (dose: 54.0 mg/kg/injection, schedule: Q01DX007 (ip), vehicle: carboxymethylcellulose (CMC)): 84 % of control
- T/C (dose: 81.0 mg/kg/injection, schedule: Q01DX007 (ip), vehicle: carboxymethylcellulose (CMC)): 57 % of control
